Tests used:
Experiment in all cases: relative viability (nuclei count vs DMSO), 5 days (fraction); higher = more cells survive
Tipifarnib + Luminespib = compound: Cn1cncc1[C@@](N)(c1ccc(Cl)cc1)c1ccc2c(c1)c(-c1cccc(Cl)c1)cc(=O)n2C [Tipifarnib] + CCNC(=O)c1noc(-c2cc(C(C)C)c(O)cc2O)c1-c1ccc(CN2CCOCC2)cc1 [Luminespib] (partner 0.01 µM)
How it was run: (§1)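 Relative viability divides the nuclei count in treated wells by that in vehicle wells. Lung cancer cell lines were seeded in 1536-well plates, dosed by pin tool the next day, and fixed and stained after 5 days in one step with final 0.05% Triton X-100, 1% formaldehyde and 1 ug/ml Hoechst. Dosing was a single drug or a fixed anchor-drug dose plus five library-drug doses (not always all listed) in √10 steps, and values are medians of duplicate plates imaged at 4×.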

Tipifarnib + Lapatinib = compound: Cn1cncc1[C@@](N)(c1ccc(Cl)cc1)c1ccc2c(c1)c(-c1cccc(Cl)c1)cc(=O)n2C [Tipifarnib] + CS(=O)(=O)CCNCc1ccc(-c2ccc3ncnc(Nc4ccc(OCc5cccc(F)c5)c(Cl)c4)c3c2)o1 [Lapatinib] (partner 2 µM)
How it was run: as §1

Tipifarnib + Decitabine = compound: Cn1cncc1[C@@](N)(c1ccc(Cl)cc1)c1ccc2c(c1)c(-c1cccc(Cl)c1)cc(=O)n2C [Tipifarnib] + Nc1ncn([C@H]2C[C@H](O)[C@@H](CO)O2)c(=O)n1 [Decitabine] (partner 2 µM)
How it was run: as §1

Tipifarnib + Olaparib = compound: Cn1cncc1[C@@](N)(c1ccc(Cl)cc1)c1ccc2c(c1)c(-c1cccc(Cl)c1)cc(=O)n2C [Tipifarnib] + O=C(c1cc(Cc2n[nH]c(=O)c3ccccc23)ccc1F)N1CCN(C(=O)C2CC2)CC1 [Olaparib] (partner 8 µM)
How it was run: as §1

RERF-LC-KJ
relative viability (Tipifarnib + Luminespib; first compound 0.01 µM): 1.2 | relative viability (Tipifarnib + Luminespib; first compound 0.03162 µM): 0.924 | relative viability (Tipifarnib + Luminespib; first compound 0.1 µM): 1.07 | relative viability (Tipifarnib + Luminespib; first compound 0.3162 µM): 0.605 | relative viability (Tipifarnib + Luminespib; first compound 1 µM): 0.654 | relative viability (Tipifarnib + Lapatinib; first compound 0.01 µM): 0.94 | relative viability (Tipifarnib + Lapatinib; first compound 0.03162 µM): 0.922 | relative viability (Tipifarnib + Lapatinib; first compound 0.1 µM): 0.829 | relative viability (Tipifarnib + Lapatinib; first compound 0.3162 µM): 0.732 | relative viability (Tipifarnib + Lapatinib; first compound 1 µM): 0.626 | relative viability (Tipifarnib + Decitabine; first compound 0.01 µM): 0.848 | relative viability (Tipifarnib + Decitabine; first compound 0.03162 µM): 0.691 | relative viability (Tipifarnib + Decitabine; first compound 0.1 µM): 0.733 | relative viability (Tipifarnib + Decitabine; first compound 0.3162 µM): 0.451 | relative viability (Tipifarnib + Decitabine; first compound 1 µM): 0.478 | relative viability (Tipifarnib + Olaparib; first compound 0.01 µM): 0.993 | relative viability (Tipifarnib + Olaparib; first compound 0.03162 µM): 0.898 | relative viability (Tipifarnib + Olaparib; first compound 0.1 µM): 0.864 | relative viability (Tipifarnib + Olaparib; first compound 0.3162 µM): 0.718 | relative viability (Tipifarnib + Olaparib; first compound 1 µM): 0.699

LOU-NH91
relative viability (Tipifarnib + Luminespib; first compound 0.01 µM): 0.321 | relative viability (Tipifarnib + Luminespib; first compound 0.03162 µM): 0.336 | relative viability (Tipifarnib + Luminespib; first compound 0.1 µM): 0.323 | relative viability (Tipifarnib + Luminespib; first compound 0.3162 µM): 0.322 | relative viability (Tipifarnib + Luminespib; first compound 1 µM): 0.323 | relative viability (Tipifarnib + Lapatinib; first compound 0.01 µM): 0.794 | relative viability (Tipifarnib + Lapatinib; first compound 0.03162 µM): 0.658 | relative viability (Tipifarnib + Lapatinib; first compound 0.1 µM): 0.675 | relative viability (Tipifarnib + Lapatinib; first compound 0.3162 µM): 0.669 | relative viability (Tipifarnib + Lapatinib; first compound 1 µM): 0.499 | relative viability (Tipifarnib + Decitabine; first compound 0.01 µM): 0.804 | relative viability (Tipifarnib + Decitabine; first compound 0.03162 µM): 0.791 | relative viability (Tipifarnib + Decitabine; first compound 0.1 µM): 0.801 | relative viability (Tipifarnib + Decitabine; first compound 0.3162 µM): 0.664 | relative viability (Tipifarnib + Decitabine; first compound 1 µM): 0.738 | relative viability (Tipifarnib + Olaparib; first compound 0.01 µM): 0.929 | relative viability (Tipifarnib + Olaparib; first compound 0.03162 µM): 0.904 | relative viability (Tipifarnib + Olaparib; first compound 0.1 µM): 0.857 | relative viability (Tipifarnib + Olaparib; first compound 0.3162 µM): 0.802 | relative viability (Tipifarnib + Olaparib; first compound 1 µM): 0.824

NCI-H2347
relative viability (Tipifarnib + Luminespib; first compound 0.01 µM): 0.671 | relative viability (Tipifarnib + Luminespib; first compound 0.03162 µM): 0.298 | relative viability (Tipifarnib + Luminespib; first compound 0.1 µM): 0.401 | relative viability (Tipifarnib + Luminespib; first compound 0.3162 µM): 0.386 | relative viability (Tipifarnib + Luminespib; first compound 1 µM): 0.28 | relative viability (Tipifarnib + Lapatinib; first compound 0.01 µM): 0.827 | relative viability (Tipifarnib + Lapatinib; first compound 0.03162 µM): 0.727 | relative viability (Tipifarnib + Lapatinib; first compound 0.1 µM): 0.642 | relative viability (Tipifarnib + Lapatinib; first compound 0.3162 µM): 0.582 | relative viability (Tipifarnib + Lapatinib; first compound 1 µM): 0.642 | relative viability (Tipifarnib + Decitabine; first compound 0.01 µM): 0.593 | relative viability (Tipifarnib + Decitabine; first compound 0.03162 µM): 0.553 | relative viability (Tipifarnib + Decitabine; first compound 0.1 µM): 0.581 | relative viability (Tipifarnib + Decitabine; first compound 0.3162 µM): 0.527 | relative viability (Tipifarnib + Decitabine; first compound 1 µM): 0.521 | relative viability (Tipifarnib + Olaparib; first compound 0.01 µM): 0.59 | relative viability (Tipifarnib + Olaparib; first compound 0.03162 µM): 0.46 | relative viability (Tipifarnib + Olaparib; first compound 0.1 µM): 0.563 | relative viability (Tipifarnib + Olaparib; first compound 0.3162 µM): 0.473 | relative viability (Tipifarnib + Olaparib; first compound 1 µM): 0.472

NCI-H2126
relative viability (Tipifarnib + Luminespib; first compound 0.01 µM): 0.982 | relative viability (Tipifarnib + Luminespib; first compound 0.03162 µM): 0.947 | relative viability (Tipifarnib + Luminespib; first compound 0.1 µM): 0.7 | relative viability (Tipifarnib + Luminespib; first compound 0.3162 µM): 0.876 | relative viability (Tipifarnib + Luminespib; first compound 1 µM): 0.723 | relative viability (Tipifarnib + Lapatinib; first compound 0.01 µM): 0.782 | relative viability (Tipifarnib + Lapatinib; first compound 0.03162 µM): 0.724 | relative viability (Tipifarnib + Lapatinib; first compound 0.1 µM): 0.769 | relative viability (Tipifarnib + Lapatinib; first compound 0.3162 µM): 0.761 | relative viability (Tipifarnib + Lapatinib; first compound 1 µM): 0.469 | relative viability (Tipifarnib + Decitabine; first compound 0.01 µM): 0.576 | relative viability (Tipifarnib + Decitabine; first compound 0.03162 µM): 0.582 | relative viability (Tipifarnib + Decitabine; first compound 0.1 µM): 0.578 | relative viability (Tipifarnib + Decitabine; first compound 0.3162 µM): 0.519 | relative viability (Tipifarnib + Decitabine; first compound 1 µM): 0.53 | relative viability (Tipifarnib + Olaparib; first compound 0.01 µM): 0.927 | relative viability (Tipifarnib + Olaparib; first compound 0.03162 µM): 0.885 | relative viability (Tipifarnib + Olaparib; first compound 0.1 µM): 0.844 | relative viability (Tipifarnib + Olaparib; first compound 0.3162 µM): 0.843 | relative viability (Tipifarnib + Olaparib; first compound 1 µM): 0.879

HCC-827
relative viability (Tipifarnib + Luminespib; first compound 0.01 µM): 1.06 | relative viability (Tipifarnib + Luminespib; first compound 0.03162 µM): 0.471 | relative viability (Tipifarnib + Luminespib; first compound 0.1 µM): 0.279 | relative viability (Tipifarnib + Luminespib; first compound 0.3162 µM): 0.365 | relative viability (Tipifarnib + Luminespib; first compound 1 µM): 0.256 | relative viability (Tipifarnib + Lapatinib; first compound 0.01 µM): 0.184 | relative viability (Tipifarnib + Lapatinib; first compound 0.03162 µM): 0.208 | relative viability (Tipifarnib + Lapatinib; first compound 0.1 µM): 0.152 | relative viability (Tipifarnib + Lapatinib; first compound 0.3162 µM): 0.186 | relative viability (Tipifarnib + Lapatinib; first compound 1 µM): 0.172 | relative viability (Tipifarnib + Decitabine; first compound 0.01 µM): 0.324 | relative viability (Tipifarnib + Decitabine; first compound 0.03162 µM): 0.333 | relative viability (Tipifarnib + Decitabine; first compound 0.1 µM): 0.293 | relative viability (Tipifarnib + Decitabine; first compound 0.3162 µM): 0.293 | relative viability (Tipifarnib + Decitabine; first compound 1 µM): 0.259 | relative viability (Tipifarnib + Olaparib; first compound 0.01 µM): 0.68 | relative viability (Tipifarnib + Olaparib; first compound 0.03162 µM): 0.693 | relative viability (Tipifarnib + Olaparib; first compound 0.1 µM): 0.545 | relative viability (Tipifarnib + Olaparib; first compound 0.3162 µM): 0.443 | relative viability (Tipifarnib + Olaparib; first compound 1 µM): 0.478

NCI-H3122
relative viability (Tipifarnib + Luminespib; first compound 0.01 µM): 0.0874 | relative viability (Tipifarnib + Luminespib; first compound 0.03162 µM): 0.0613 | relative viability (Tipifarnib + Luminespib; first compound 0.1 µM): 0.0958 | relative viability (Tipifarnib + Luminespib; first compound 0.3162 µM): 0.0893 | relative viability (Tipifarnib + Luminespib; first compound 1 µM): 0.0812 | relative viability (Tipifarnib + Lapatinib; first compound 0.01 µM): 1.01 | relative viability (Tipifarnib + Lapatinib; first compound 0.03162 µM): 0.917 | relative viability (Tipifarnib + Lapatinib; first compound 0.1 µM): 0.961 | relative viability (Tipifarnib + Lapatinib; first compound 0.3162 µM): 0.73 | relative viability (Tipifarnib + Lapatinib; first compound 1 µM): 0.811 | relative viability (Tipifarnib + Decitabine; first compound 0.01 µM): 0.414 | relative viability (Tipifarnib + Decitabine; first compound 0.03162 µM): 0.407 | relative viability (Tipifarnib + Decitabine; first compound 0.1 µM): 0.415 | relative viability (Tipifarnib + Decitabine; first compound 0.3162 µM): 0.397 | relative viability (Tipifarnib + Decitabine; first compound 1 µM): 0.308 | relative viability (Tipifarnib + Olaparib; first compound 0.01 µM): 0.685 | relative viability (Tipifarnib + Olaparib; first compound 0.03162 µM): 0.681 | relative viability (Tipifarnib + Olaparib; first compound 0.1 µM): 0.482 | relative viability (Tipifarnib + Olaparib; first compound 0.3162 µM): 0.422 | relative viability (Tipifarnib + Olaparib; first compound 1 µM): 0.415

HOP-62
relative viability (Tipifarnib + Luminespib; first compound 0.01 µM): 0.653 | relative viability (Tipifarnib + Luminespib; first compound 0.03162 µM): 0.611 | relative viability (Tipifarnib + Luminespib; first compound 0.1 µM): 0.401 | relative viability (Tipifarnib + Luminespib; first compound 0.3162 µM): 0.374 | relative viability (Tipifarnib + Luminespib; first compound 1 µM): 0.349 | relative viability (Tipifarnib + Lapatinib; first compound 0.01 µM): 0.841 | relative viability (Tipifarnib + Lapatinib; first compound 0.03162 µM): 0.301 | relative viability (Tipifarnib + Lapatinib; first compound 0.1 µM): 0.454 | relative viability (Tipifarnib + Lapatinib; first compound 0.3162 µM): 0.244 | relative viability (Tipifarnib + Lapatinib; first compound 1 µM): 0.265 | relative viability (Tipifarnib + Decitabine; first compound 0.01 µM): 0.204 | relative viability (Tipifarnib + Decitabine; first compound 0.03162 µM): 0.225 | relative viability (Tipifarnib + Decitabine; first compound 0.1 µM): 0.196 | relative viability (Tipifarnib + Decitabine; first compound 0.3162 µM): 0.254 | relative viability (Tipifarnib + Decitabine; first compound 1 µM): 0.191 | relative viability (Tipifarnib + Olaparib; first compound 0.01 µM): 0.337 | relative viability (Tipifarnib + Olaparib; first compound 0.03162 µM): 0.395 | relative viability (Tipifarnib + Olaparib; first compound 0.1 µM): 0.205 | relative viability (Tipifarnib + Olaparib; first compound 0.3162 µM): 0.193 | relative viability (Tipifarnib + Olaparib; first compound 1 µM): 0.2

HCC-44
relative viability (Tipifarnib + Luminespib; first compound 0.01 µM): 0.98 | relative viability (Tipifarnib + Luminespib; first compound 0.03162 µM): 0.93 | relative viability (Tipifarnib + Luminespib; first compound 0.1 µM): 0.899 | relative viability (Tipifarnib + Luminespib; first compound 0.3162 µM): 0.839 | relative viability (Tipifarnib + Luminespib; first compound 1 µM): 0.855 | relative viability (Tipifarnib + Lapatinib; first compound 0.01 µM): 0.876 | relative viability (Tipifarnib + Lapatinib; first compound 0.03162 µM): 0.898 | relative viability (Tipifarnib + Lapatinib; first compound 0.1 µM): 0.853 | relative viability (Tipifarnib + Lapatinib; first compound 0.3162 µM): 0.767 | relative viability (Tipifarnib + Lapatinib; first compound 1 µM): 0.494 | relative viability (Tipifarnib + Decitabine; first compound 0.01 µM): 0.869 | relative viability (Tipifarnib + Decitabine; first compound 0.03162 µM): 0.846 | relative viability (Tipifarnib + Decitabine; first compound 0.1 µM): 0.934 | relative viability (Tipifarnib + Decitabine; first compound 0.3162 µM): 0.847 | relative viability (Tipifarnib + Decitabine; first compound 1 µM): 0.804 | relative viability (Tipifarnib + Olaparib; first compound 0.01 µM): 0.973 | relative viability (Tipifarnib + Olaparib; first compound 0.03162 µM): 0.925 | relative viability (Tipifarnib + Olaparib; first compound 0.1 µM): 0.993 | relative viability (Tipifarnib + Olaparib; first compound 0.3162 µM): 0.957 | relative viability (Tipifarnib + Olaparib; first compound 1 µM): 0.942

Reference: the supplement of paper PMC10307832
